Columns and labels:
C. albicans [1] = assay: MIC, visible-light-activated MMs and conventional antifungals, C. albicans; type: cell-based, Candida albicans (ATCC 18804); conditions: Candida albicans, read-out: MIC of MM
Method in brief: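 C. albicans suspensions (~10^4 CFU/mL in saline, CLSI) incubated 30 min in the dark with MMs, then irradiated with stirring at 405 nm, 292 mW cm^−2 for 5 min (87.6 J cm^−2). Cells then grown in MOPS-buffered RPMI 1640 (pH 7.0) at 30 °C for 48 h; MIC is lowest concentration with no visible growth; conventional antifungals tested likewise.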

C. albicans [2] = assay: Development of resistance / cross-resistance in C. albicans (serial passage, single-step); type: cell-based; conditions: Candida albicans, read-out: MIC of MM in antifungal-resistant C. albicans
Procedure: FIG. 3: Evaluation of the development of resistance to MMs in C. albicans. For the stepwise resistance assessment by serial passage (left), C. albicans cell suspensions were treated with increasing concentrations (0.3125-160 μM) of different MMs (8 mM stock in DMSO) and then irradiated with […] light (87.6 J cm^−2). The irradiated cell suspensions were then inoculated in MOPS-buffered RPMI 1640 (pH 7.0, Sigma, MO, USA), and the tubes were incubated at 30 ° C for 48 h. […] Cells able to grow at 0.5×MIC of each MM were collected by centrifugation (5,000×g, 5 min), resuspended and re-challenged with a range of MM concentrations and irradiated with 405 nm light (87.6 J cm^−2). The procedure was repeated for a total of 20 consecutive cycles. […] Irradiated cells were then inoculated in YPD and incubated at 30 °C. However, MM-resistant colonies could not be recovered even after 14 days of incubation. Created with Biorender.com.
A modified version of the broth microdilution serial passage method was used to assess the development of resistance to visible-light-activated MMs in C. albicans (Kapoor et al., 2019). C. albicans cell suspensions were prepared and irradiated as previously described for the determination of MM MIC. Cells were then inoculated into buffered RPMI 1640 and incubated at 30 ° C for 48 h. Cells able to grow at 0.5×MIC of MM were centrifuged (5,000×g, 5 min), resuspended, rechallenged with different MM concentrations, and irradiated with 405-nm light (87.6 J cm^−2). The procedure was repeated for 20 consecutive cycles. The antifungals AMB, CAS, and FLC were processed similarly, except that light was omitted, and used as controls.

B. cepacia = assay: MIC, B. cepacia; type: cell-based; conditions: Burkholderia cepacia, read-out: MIC of MM
Procedure: The appropriate volume of an MM stock at 8 mM necessary to achieve a concentration ranging from 0.3125 to 40 μM was pipetted into a 2 mL microcentrifuge tube to which 1 mL of cell suspension prepared as previously described was added. Corresponding negative controls (DMSO only) were prepared in the same way. The mixture was gently mixed by pipetting and incubated in the dark at 30 or 37 ° C, depending on the strain, for 30 min with agitation (220 rpm). Afterward, MM- or DMSO-treated cells were dispensed in one well of a 24-well plate positioned in the center of the light beam (405 nm LED Light, Prizmatix, UHP—F-5-405) placed at the appropriate distance necessary to achieve the desired light intensity of 304 mW cm-2, 146 mW cm2 or 87 mW cm2, as measured with a handheld digital power meter console coupled to an S415C thermal power sensor head (Thorlabs, Newton, MA, USA). The temperature during irradiation was monitored using a thermocouple probe (Model SC-TT-K-30-36-PP; Omega Engineering, Inc., Stanford, CT, USA). Samples were agitated during irradiation. Dark controls were prepared as previously described except that no irradiation was provided. […]

Question: `C[C@@H]1Cc2ccc3ccccc3c2/C1=C1\c2ccccc2Sc2cc(NCCN(C)C)ccc21` [MM 1, N^1N^1-dimethyl-N^2-(9-(2-methyl-2,3-dihydro-1H-cyclopenta[a]naphthalen-1-ylidene)-9H-thioxanthen-3-yl) ethane-1,2-diamine] was tested. Which MIC (C. albicans [1]) did it give?
Answer: The MIC was no more than 5 µM.

Question: What about the MIC (C. albicans [2]) of the same molecule?
Answer: The MIC was 1.25 µM.

Question: What about the MIC (B. cepacia) of the same molecule?
Answer: The MIC was 10 µM.

Question: What does the source list for `C[C@@H]1Cc2ccc3ccccc3c2/C1=C1\c2ccccc2Sc2cc(NCCN)ccc21` (racemic) [MM 6, N^1-(9-(2-methyl-2,3-dihydro-1H-cyclopenta[a]naphthalen-1-ylidene)-9H-thioxanthen-3-yl)ethane-1,2-diamine]?
Answer: MIC (C. albicans [1]): ≤ 5 µM; MIC (C. albicans [2]): 2.5 µM; MIC (B. cepacia): 10 µM

Reference: patent publication US20260355318A1, “MOLECULAR MACHINES FOR TREATMENT OF CANCER, FUNGAL INFECTIONS, OR BACTERIAL INFECTIONS” (priority 2022, published 2026)
